For data set [1] the following is noted: cited from earlier work; for pKa: ammonium pKa (Brown 1955).
Data set [2] in a line: pKa determination by 31P NMR spectroscopy. It is filed as physicochemical. The settings on record: control experiment, sodium phosphate buffer containing 20% v/v D2O. On the procedure: The pKa values of phosphinothiols 33-35 were determined to quantitate the impact of Coulombic effects. […] Thus, the phosphorous pKa value of the cationic phosphinothiols appears to be below the limit of experimental detection. […] (Moore, S. J.; Marzilli, L. G. Inorg. Chem. 1998, 37, 5329-810 5335.) That value is much larger than the phosphorous pKa of phosphinothiols 33-35, consistent with the present hypothesis that through-space Coulombic effects lower the pKa of neighboring atoms, and in particular discourage protonation of the key iminophosphorane intermediate.
pKa Determination of phosphinothiols […] (10 mg) were each dissolved in sodium phosphate buffer containing 20% v/v D2O. 750 The solution was adjusted with a solution of either 6 N HCl or 2 N NaOH, and chemical shifts at each pH were determined by ^31P NMR spectroscopy. An external standard (D3PO4) was used to calibrate the chemical shifts. […] (Podlaha, J.; Podlahova, J. Collect. Czech. Chem. Commun. 1973, 38, 1730-1736.)

For data set [3] the following is noted: Gly+Gly coupling in DMF/D2O (6:1), reported previously; cited from earlier work.
Data set [4] is described as follows: Solubility in water or aqueous sodium phosphate buffer. It is filed as physicochemical. The settings on record: 0.4 M sodium phosphate buffer (pH 7.8).
Data set [5] can be described thus: Stability in air / on storage. It is filed as physicochemical. The settings on record: chloride salt, solid.

≈ marks a conversion by molar mass, not a printed value. Where two headings read alike, the source gives them in different places. Where only a bound is given, the exact number is not on record here.

On to `Fc1ccc(P(c2ccc(F)cc2)c2ccc(F)cc2)cc1` [(p-F—C6H4)3P], for which the “phosphorous pKa” value in data set [1] (in water (Moore 1998)) is 1.97.

As to `COc1ccc(P(c2ccc(OC)cc2)c2ccc(OC)cc2)cc1` [(p-OMe-C6H4)3P], the “phosphorous pKa” value in data set [1] (in water (Moore 1998)) is 4.57.

In the case of `CCCCCCN` [CH3(CH2)5NH3^+], in data set [1], the pKa was 10.63.

As for `CCCCCCCCCN` [CH3(CH2)8NH3^+], in data set [1], the pKa is listed as 10.65.

In the case of `CCP(c1ccccc1)c1ccccc1` [EtPPh2], the “phosphorous pKa” value in data set [1] (neutral mimic of HSCH2PPh2 (Moore 1998)) was 4.90.

On to `c1ccc(P(c2ccccc2)c2ccccc2)cc1` [Ph3P], for which the “phosphorous pKa” value in data set [1] (in water (Moore 1998)) was 2.73.

The molecule `O=C(O)CCP(CCC(=O)O)CCC(=O)O` [TCEP, tris(2-carboxyethyl)phosphine] showed a pKa in data set [2] of 7.7. Moreover, the “pKa, reported value” in data set [1] (reported value (Podlaha 1973)) is given as 7.66.

On to `NCCCCCN` [^+H3N(CH2)5NH3^+], for which, in data set [1], the pKa was 9.74.

Turning to `NCCCCCCCCN` [^+H3N(CH2)8NH3^+], in data set [1], the pKa is 10.10.

Take `SCP(c1ccccc1)c1ccccc1` [phosphinothiol 1, (Diphenylphosphino)methanethiol]: the “second-order rate constant k2” value in data set [3] is 0.0077 M⁻¹ s⁻¹.

As to `O=C(O)CNC(=O)c1ccc(P(CS)c2ccc(C(=O)NCC(=O)O)cc2)cc1` [phosphinothiol 9], in data set [4], the solubility is reported as roughly 50 mM (≈ 21.7 mg/mL).

Consider `CN(C)CCc1ccc(P(CS)c2ccc(CCN(C)C)cc2)cc1` [phosphinothiol 17, bis(p-dimethylaminoethyl) phosphinomethanethiol], for which the solubility in data set [4] (aqueous buffer, chloride salt, read-out: solubility) was greater than 1000 mM. Moreover, in data set [5], the stability in air entry is reported as “stable in air for several days”.

As a reminder, the pKa is the pH at which an ionisable group is half protonated. As a reminder, the solubility is how much of the substance goes into solution per volume.

The values are drawn from patent US8410247B2, “Water-soluble phosphinothiol reagents” (Wisconsin Alumni Research Foundation, priority 2008, dated 2013).
